Paper PMC6710338, “Turning a Collagenesis-Inducing Peptide Into a Potent Antibacterial and Antibiofilm Agent Against Multidrug-Resistant Gram-Negative Bacteria” (Frontiers in Microbiology, 2019)
Where two headings read alike, the source gives them in different places. Square brackets hold non-standard residues; d marks the D form. Peptide text beside a SMILES is read from it. * marks the point of attachment. Palmitoyl = CCCCCCCCCCCCCCCC(=O)*; βAla = NCCC(=O)O

Columns and labels:
E. coli ATCC 25922 = experiment: MIC, broth microdilution (CLSI), ATCC reference strain; type: cell-based, Escherichia coli
Method: (§1) The minimum inhibitory concentration (MIC) of synthetic peptides was determined using the broth microdilution method in cation-adjusted Mueller-Hinton broth (MHB2 – Sigma-Aldrich, St. Louis, MO, United States), according to the recommendations of the Clinical and Laboratory Standards Institute ([CLSI, 2012]), against four reference strains, namely, P. aeruginosa ATCC 27853, E. coli ATCC 25922, S. aureus ATCC 25923 and Enterococcus faecalis ATCC 29212. MIC values of peptide 3.1-PP4 were also determined against MDR clinical isolates of P. aeruginosa (PA002, PA004, Pa3, Pa4), E. coli (Ec1, Ec2, EC001, EC002, EC003) and K. pneumoniae (KP004, KP007, KP010). The peptides were tested in the concentration range of 1–1024 μg/mL. The minimum bactericidal concentration (MBC) was determined as previously reported ([Bessa et al., 2018]). According to CLSI guidelines for antimicrobial susceptibility testing, MIC values were determined for all peptides against ATCC reference strains of two Gram-positive (S. aureus ATCC 25923 and E. faecalis ATCC 29212), and two Gram-negative (P. aeruginosa ATCC 27853 and E. coli ATCC 25922) bacterial species, and are shown in Table 2.

HFF-1 cells = type: cell-based, human
Method: Immortalized human foreskin fibroblasts (HFF-1) were grown as a monolayer from passage number 8–16. For routine maintenance, HFF-1 cells were cultured in Dulbecco’s Modified Eagle Medium (DMEM, from Cell Lines Service) supplemented with 15% fetal bovine serum (FBS, from CLS) and 1% antibiotic/antimycotic solution (100 units/mL of penicillin, 100 μg/mL of streptomycin and 0.25 μg/mL of amphotericin B, from Sigma-Aldrich, St. Louis, MO, United States) at 37°C in an humidified atmosphere with 5% CO2. Cells were harvested by trypsinization [0.25% (w/v) trypsin-EDTA4Na, Sigma-Aldrich, St. Louis, MO, United States] twice a week.
The cytotoxicity of synthetic peptides to HFF-1 cells was evaluated using the standard MTT assay. Briefly, cells were seeded at a density of 8 × 10^4 cells/well onto 96-well plate and incubated at 37°C in a 5% CO2 atmosphere. Cells were allowed to grow for 48 h, and serially diluted peptide solutions (0.78–100 μM) were added to the wells. Then, cells were incubated for 72 h at 37°C, after which wells were washed once with phosphate buffered saline (PBS, Sigma-Aldrich, St. Louis, MO, United States), followed by addition of a 0.45 mg/mL MTT solution to each well. Crystals were allowed to form for 1.5 h. Reaction was stopped by rejecting the medium and addition of dimethylsulfoxide (DMSO, Sigma-Aldrich, St. Louis, MO, United States). Absorbance was read at 570 nm (Biotek PowerWave XS).
At the end of the cytotoxicity assays, the number of viable cells was never below that of initially plated cells. As such, data are represented as peptide concentrations causing 50% growth inhibition (IC50) on HFF-1 cells, rather than as lethal dosis values. IC50 values thus obtained are also included in Table 2.

S. aureus ATCC 25923 = experiment: MIC, broth microdilution (CLSI), ATCC reference strain; type: cell-based, Staphylococcus aureus
Method: as §1

E. faecalis ATCC 29212 = experiment: as above; type: cell-based, Enterococcus faecalis
Method: as §1

P. aeruginosa ATCC 27853 = experiment: as above; type: cell-based, Pseudomonas aeruginosa
Method: as §1

[1] = E. coli ATCC 25922, broth microdilution in cation-adjusted Mueller-Hinton broth (MHB2), CLSI, range tested 1–1024 μg/mL
[2] = S. aureus ATCC 25923, broth microdilution in MHB2, CLSI, range tested 1–1024 μg/mL
[3] = E. faecalis ATCC 29212, broth microdilution in MHB2, CLSI, range tested 1–1024 μg/mL
[4] = P. aeruginosa ATCC 27853, broth microdilution in MHB2, CLSI, range tested 1–1024 μg/mL

## C[C@@H](O)[C@H](NC(=O)[C@@H](NC(=O)[C@@H](N)CCCCN)[C@@H](C)O)C(=O)N[C@@H](CCCCN)C(=O)N[C@@H](CO)C(N)=O [PP4, reference compound] (H-KTTKS-NH2)
E. coli ATCC 25922; ATCC 25922
  MIC: > 1820 µM
HFF-1 cells; 72 h
  IC50: > 100 µM
S. aureus ATCC 25923; ATCC 25923
  MIC: > 1820 µM
E. faecalis ATCC 29212; ATCC 29212
  MIC: > 1820 µM
P. aeruginosa ATCC 27853; ATCC 27853
  MIC: > 1820 µM

## CC(C)C[C@H](NC(=O)[C@H](CC(C)C)NC(=O)[C@H](CCCCN)NC(=O)[C@H](CC(C)C)NC(=O)[C@H](CC(C)C)NC(=O)[C@H](Cc1c[nH]c2ccccc12)NC(=O)[C@H](CCCCN)NC(=O)[C@H](CC(C)C)NC(=O)[C@H](CC(C)C)NC(=O)[C@H](CCCCN)NC(=O)[C@H](CCCCN)NC(=O)[C@H](CO)NC(=O)[C@H](CCCCN)NC(=O)[C@@H](NC(=O)[C@@H](NC(=O)[C@@H](N)CCCCN)[C@@H](C)O)[C@@H](C)O)C(N)=O [PP4-3.1] (H-KTTKSKKLLKWLLKLL-NH2)
E. coli ATCC 25922; ATCC 25922
  MIC: 2 µM
HFF-1 cells; 72 h
  IC50: 25 ± 2 µM
S. aureus ATCC 25923; ATCC 25923
  MIC: 4 µM
E. faecalis ATCC 29212; ATCC 29212
  MIC: 8 µM
P. aeruginosa ATCC 27853; ATCC 27853
  MIC: 1 µM

## CC(C)C[C@H](NC(=O)[C@H](CC(C)C)NC(=O)[C@H](CCCCN)NC(=O)[C@H](CC(C)C)NC(=O)[C@H](CC(C)C)NC(=O)[C@H](Cc1c[nH]c2ccccc12)NC(=O)[C@H](CCCCN)NC(=O)[C@H](CC(C)C)NC(=O)[C@H](CC(C)C)NC(=O)[C@H](CCCCN)NC(=O)[C@H](CCCCN)NC(=O)CCNC(=O)[C@H](CO)NC(=O)[C@H](CCCCN)NC(=O)[C@@H](NC(=O)[C@@H](NC(=O)[C@@H](N)CCCCN)[C@@H](C)O)[C@@H](C)O)C(N)=O [PP4-β-ala-3.1] (H-KTTKS[βAla]KKLLKWLLKLL-NH2)
E. coli ATCC 25922; ATCC 25922
  MIC: 2 µM
HFF-1 cells; 72 h
  IC50: 24 ± 2 µM
S. aureus ATCC 25923; ATCC 25923
  MIC: 4 µM
E. faecalis ATCC 29212; ATCC 29212
  MIC: 4 µM
P. aeruginosa ATCC 27853; ATCC 27853
  MIC: 2 µM

## CC(C)C[C@H](NC(=O)[C@H](CC(C)C)NC(=O)[C@H](CCCCN)NC(=O)[C@H](CC(C)C)NC(=O)[C@H](CC(C)C)NC(=O)[C@H](Cc1c[nH]c2ccccc12)NC(=O)[C@H](CCCCN)NC(=O)[C@H](CC(C)C)NC(=O)[C@H](CC(C)C)NC(=O)[C@H](CCCCN)NC(=O)[C@@H](N)CCCCN)C(N)=O [Peptide 3.1, reference compound] (H-KKLLKWLLKLL-NH2)
E. coli ATCC 25922; E. coli ATCC 25922, broth microdilution in MHB2, CLSI, value in parentheses
  MIC: 6 µM
HFF-1 cells; 50% growth inhibition, MTT, 72 h incubation at 37°C, 0.78–100 μM, absorbance 570 nm, read-out: IC50 ± SEM on HFF-1 cells
  IC50: 50 ± 3 µM
S. aureus ATCC 25923; S. aureus ATCC 25923, broth microdilution in MHB2, CLSI, value in parentheses
  MIC: 3 µM
E. faecalis ATCC 29212; E. faecalis ATCC 29212, broth microdilution in MHB2, CLSI, value in parentheses
  MIC: 3 to 6 µM
P. aeruginosa ATCC 27853; P. aeruginosa ATCC 27853, broth microdilution in MHB2, CLSI, value in parentheses
  MIC: 3 µM

## CCCCCCCCCCCCCCCC(=O)N[C@@H](CCCCN)C(=O)N[C@@H](CCCCN)C(=O)N[C@@H](CC(C)C)C(=O)N[C@@H](CC(C)C)C(=O)N[C@@H](CCCCN)C(=O)N[C@@H](Cc1c[nH]c2ccccc12)C(=O)N[C@@H](CC(C)C)C(=O)N[C@@H](CC(C)C)C(=O)N[C@@H](CCCCN)C(=O)N[C@@H](CC(C)C)C(=O)N[C@@H](CC(C)C)C(=O)N[C@@H](CCCCN)C(=O)N[C@H](C(=O)N[C@H](C(=O)N[C@@H](CCCCN)C(=O)N[C@@H](CO)C(N)=O)[C@@H](C)O)[C@@H](C)O [Peptide C16-3.1-PP4] (Palmitoyl-KKLLKWLLKLLKTTKS-NH2)
E. coli ATCC 25922; ATCC 25922
  MIC: 29 µM
E. coli ATCC 25922; [1]
  MIC: 64 µg/mL
HFF-1 cells; 72 h
  IC50: 17.8 ± 0.5 µM
S. aureus ATCC 25923; ATCC 25923
  MIC: 59 µM
S. aureus ATCC 25923; [2]
  MIC: 128 µg/mL
E. faecalis ATCC 29212; ATCC 29212
  MIC: 30 to 59 µM
E. faecalis ATCC 29212; [3]
  MIC: 64 to 128 µg/mL
P. aeruginosa ATCC 27853; ATCC 27853
  MIC: 29 µM
P. aeruginosa ATCC 27853; [4]
  MIC: 64 µg/mL

## CCCCCCCCCCCCCCCC(=O)N[C@@H](CCCCN)C(=O)N[C@@H](CCCCN)C(=O)N[C@@H](CC(C)C)C(=O)N[C@@H](CC(C)C)C(=O)N[C@@H](CCCCN)C(=O)N[C@@H](Cc1c[nH]c2ccccc12)C(=O)N[C@@H](CC(C)C)C(=O)N[C@@H](CC(C)C)C(=O)N[C@@H](CCCCN)C(=O)N[C@@H](CC(C)C)C(=O)N[C@@H](CC(C)C)C(N)=O [Peptide C16-3.1] (Palmitoyl-KKLLKWLLKLL-NH2)
E. coli ATCC 25922; ATCC 25922
  MIC: 78.4 µM
E. coli ATCC 25922; [1]
  MIC: 128 µg/mL
HFF-1 cells; 72 h
  IC50: 23.4 ± 0.7 µM
S. aureus ATCC 25923; ATCC 25923
  MIC: > 627 µM
S. aureus ATCC 25923; [2]
  MIC: > 1024 µg/mL
E. faecalis ATCC 29212; ATCC 29212
  MIC: 256 µg/mL
P. aeruginosa ATCC 27853; ATCC 27853
  MIC: 78.4 µM
P. aeruginosa ATCC 27853; [4]
  MIC: 128 µg/mL

## CCCCCCCCCCCCCCCC(=O)N[C@@H](CCCCN)C(=O)N[C@H](C(=O)N[C@H](C(=O)N[C@@H](CCCCN)C(=O)N[C@@H](CO)C(N)=O)[C@@H](C)O)[C@@H](C)O [Peptide C16-PP4, reference compound] (Palmitoyl-KTTKS-NH2)
HFF-1 cells; 72 h
  IC50: > 100 µM

## CCCCCCCCCCCCCCCC(=O)N[C@@H](CCCCN)C(=O)N[C@H](C(=O)N[C@H](C(=O)N[C@@H](CCCCN)C(=O)N[C@@H](CO)C(=O)N[C@@H](CCCCN)C(=O)N[C@@H](CCCCN)C(=O)N[C@@H](CC(C)C)C(=O)N[C@@H](CC(C)C)C(=O)N[C@@H](CCCCN)C(=O)N[C@@H](Cc1c[nH]c2ccccc12)C(=O)N[C@@H](CC(C)C)C(=O)N[C@@H](CC(C)C)C(=O)N[C@@H](CCCCN)C(=O)N[C@@H](CC(C)C)C(=O)N[C@@H](CC(C)C)C(N)=O)[C@@H](C)O)[C@@H](C)O [Peptide C16-PP4-3.1] (Palmitoyl-KTTKSKKLLKWLLKLL-NH2)
E. coli ATCC 25922; ATCC 25922
  MIC: 15 µM
E. coli ATCC 25922; [1]
  MIC: 32 µg/mL
HFF-1 cells; 72 h
  IC50: 4.98 ± 0.08 µM
S. aureus ATCC 25923; ATCC 25923
  MIC: 29 µM
S. aureus ATCC 25923; [2]
  MIC: 64 µg/mL
E. faecalis ATCC 29212; ATCC 29212
  MIC: 29 µM
E. faecalis ATCC 29212; [3]
  MIC: 64 µg/mL
P. aeruginosa ATCC 27853; ATCC 27853
  MIC: 29 µM
P. aeruginosa ATCC 27853; [4]
  MIC: 64 µg/mL
